Results taken from ChEMBL document CHEMBL1147013, “Three anti-tumor saponins from Albizia julibrissin” (2006).

Key:
Assay type in all cases: functional
PC-3 [1] = assay: Antitumor activity against human PC-3M-1E8 cell line by MTT assay
Bel-7402 [2] = assay: Antitumor activity against human Bel7402 cell line by MTT assay
HeLa [3] = assay: Antitumor activity against human HeLa cell line by MTT assay
PC-3 [4] = assay: Antitumor activity against human PC-3M-1E8 cell line by SRB assay
MDA-MB-435 = assay: Antitumor activity against human MDA-MB-435 cell line by SRB assay
HeLa [5] = assay: Antitumor activity against human HeLa cell line by SRB assay
HL-60 = assay: Antitumor activity against human HL60 cell line by SRB assay
BGC-823 = assay: Antitumor activity against human BGC823 cell line by SRB assay
Bel-7402 [6] = assay: Antitumor activity against human Bel7402 cell line by SRB assay

| Compound | Inhibition (PC-3 [1]) [%] | Inhibition (Bel-7402 [2]) [%] | Inhibition (HeLa [3]) [%] | Inhibition (PC-3 [4]) [%] | Inhibition (MDA-MB-435) [%] | Inhibition (HeLa [5]) [%] | Inhibition (HL-60) [%] | Inhibition (BGC-823) [%] | Inhibition (Bel-7402 [6]) [%] |
| --- | --- | --- | --- | --- | --- | --- | --- | --- | --- |
| COc1cccc2c1C(=O)c1c(O)c3c(c(O)c1C2=O)C[C@@](O)(C(=O)CO)C[C@@H]3O[C@H]1C[C@H](N)[C@H](O)[C@H](C)O1 [DOXORUBICIN] | 91.61 | 51.26 | 76.96 |  |  |  |  |  |  |
| C=CC(C)(CC/C=C(/CO)C(=O)O[C@H]1CC2(C(=O)O[C@@H]3O[C@H](CO)[C@@H](O)[C@H](O)[C@@H]3O[C@H]3O[C@H](C)[C@@H](O[C@H]4O[C@H](CO)[C@@H](O)[C@@H]4O)[C@H](O[C@H]4O[C@@H](CO)[C@H](O)[C@@H](O)[C@@H]4O)[C@@H]3O)C(CC1(C)C)C1=CCC3C4(C)CC[C@H](O[C@@H]5O[C@H](CO[C@H]6O[C@@H](C)[C@@H](O)[C@@H](O)[C@@H]6O[C@H]6OC[C@H](O)[C@@H](O)[C@@H]6O)[C@@H](O)[C@H](O)[C@H]5OC5O[C@H](CO)[C@@H](O)[C@H](O)[C@H]5O)C(C)(C)C4CCC3(C)[C@]1(C)C[C@H]2O)O[C@H]1O[C@@H](C)[C@H](O)[C@@H](O)[C@@H]1O (stereo not given in full) [JULIBROSIDE J31] | 94.71 | 44.34 | 64.33 | 80.85 | 80.41 | 83.48 | 39.33 | 15.16 | 46.61 |
| C=CC(C)(CC/C=C(/CO)C(=O)O[C@H]1CC2(C(=O)O[C@@H]3O[C@H](CO)[C@@H](O)[C@H](O)[C@@H]3O[C@H]3O[C@H](C)[C@@H](O[C@H]4O[C@H](CO)[C@@H](O)[C@@H]4O)[C@H](O[C@H]4O[C@@H](CO)[C@H](O)[C@@H](O)[C@@H]4O)[C@@H]3O)C(CC1(C)C)C1=CCC3C4(C)CC[C@H](O[C@@H]5O[C@H](CO[C@H]6O[C@@H](C)[C@@H](O)[C@@H](O)[C@@H]6O[C@H]6OC[C@H](O)[C@@H](O)[C@@H]6O)[C@@H](O)[C@H](O)[C@H]5NC(C)=O)C(C)(C)C4CCC3(C)[C@]1(C)C[C@H]2O)O[C@H]1OC[C@H](O)[C@@H](O)[C@@H]1O (stereo not given in full) [JULIBROSIDE J30] | 75.96 | 61.87 | 92.19 | 84.98 | 75.68 | 91.65 | 25.59 | 46.66 | 57.49 |
| C=C[C@@](C)(CC/C=C(\CO)C(=O)O[C@H]1C[C@]2(C(=O)O[C@@H]3O[C@H](CO)[C@@H](O)[C@H](O)[C@H]3O[C@@H]3O[C@@H](C)[C@H](O[C@@H]4O[C@@H](CO)[C@H](O)[C@H]4O)[C@@H](O[C@@H]4O[C@H](CO)[C@@H](O)[C@H](O)[C@H]4O)[C@H]3O)[C@H](O)C[C@]3(C)C(=CC[C@@H]4[C@@]5(C)CC[C@H](O[C@@H]6O[C@H](CO[C@@H]7O[C@H](C)[C@H](O)[C@H](O)[C@H]7O[C@@H]7OC[C@@H](O)[C@H](O)[C@H]7O)[C@@H](O)[C@H](O)[C@H]6NC(C)=O)C(C)(C)[C@@H]5CC[C@]43C)[C@@H]2CC1(C)C)O[C@@H]1O[C@H](C)[C@@H](O)[C@H](O)[C@H]1O [JULIBROSIDE J29] | 81.4 | 50.37 | 87.75 | 85.37 | 84.47 | 94.9 | 25.35 | 52.9 | 67.14 |
